According to PMC10180076, “Novel Biologically Active N-Substituted Benzimidazole Derived Schiff Bases: Design, Synthesis, and Biological Evaluation” (Molecules, 2023):
≈ marks a conversion by molar mass, not a printed value.

Legend:
[1] = tested on: human coronavirus HCoV-229E; test: organism not typed; type: cell-based; conditions: HEL 299 cells, 100 CCID50, MTS; read-out: Antiviral Activity (EC50/μM) HCoV 229E HEL 299
[2] = tested on: human coronavirus HCoV-OC43; test: microbe, parasite or virus in culture; type: cell-based; conditions: Betacoronavirus 1, OC43; HEL 299 cells, 100 CCID50, MTS; read-out: Antiviral Activity (EC50/μM) HCoV OC43 HEL 299
[3] = tested on: human coronavirus HCoV-NL63; test: Antiviral CPE reduction assay, HCoV-NL63 in Huh-7; type: cell-based; conditions: Huh-7 cells, 100 CCID50, MTS
[4] = tested on: influenza A/H1N1 (A/Ned/378/05); test: Antiviral CPE reduction assay, influenza A/H1N1 in MDCK; type: cell-based; conditions: Influenza A virus, MDCK cells, 100 CCID50, MTS
[5] = tested on: influenza A/H3N2 (A/HK/7/87); test: Antiviral CPE reduction assay, influenza A/H3N2 in MDCK; type: cell-based; conditions: Influenza A virus, MDCK cells, 100 CCID50, MTS
[6] = tested on: influenza B (B/Ned/537/05); test: Antiviral CPE reduction assay, influenza B in MDCK; type: cell-based; conditions: Influenza B virus; MDCK cells, 100 CCID50, MTS
[7] = tested on: respiratory syncytial virus A (Long); test: Antiviral CPE reduction assay, RSV A in HEL 299; type: cell-based; conditions: human respiratory syncytial virus; HEL 299 cells, 100 CCID50, MTS
[8] = tested on: herpes simplex virus-1 (HSV-1 KOS); test: Antiviral CPE reduction assay, HSV-1 KOS in HEL 299; type: cell-based; conditions: Human alphaherpesvirus 1; HEL 299 cells, 100 CCID50, MTS
[9] = tested on: yellow fever virus (YFV 17D); test: microbe, parasite or virus in culture; type: cell-based; conditions: Huh-7, read-out: Antiviral Activity (EC50/μM) YFV 17D Huh-7
Zika virus (Mr776) = test: Antiviral CPE reduction assay, Zika virus in Huh-7; type: cell-based; conditions: Huh-7 cells, 100 CCID50, MTS
sindbis virus = test: Antiviral CPE reduction assay, Sindbis virus in Huh-7; type: cell-based; conditions: Huh-7 cells, 100 CCID50, MTS
in vitro [10] = conditions: human
in vitro [11] = conditions: human; remark: listed apart in the source
in vitro [12] = conditions: dog
LN-229, glioblastoma = test: Proliferation assay (MTS, 72 h), LN-229; type: cell-based, human; conditions: Homo sapiens, LN-229
From the text: (§1) Human cancer cells used in this manuscript, namely Capan-1, HCT-116, NCI-H460, LN-229, HL-60, K-562, and Z-138, were acquired from the American Type Culture Collection (ATCC, Manassas, VA, USA), while the DND-41 cell line was purchased from the Deutsche Sammlung von Mikroorganismen und Zellkulturen (DSMZ Leibniz-Institut, Braunschweig, Germany). Culture media were purchased from Gibco Life Technologies, Merelbeke, Belgium, and supplemented with 10% fetal bovine serum (HyClone, Cytiva, Marlborough, MA, USA). Vincristine and docetaxel, which were used as the reference inhibitors, were purchased from Selleckchem (Munich, Germany). Stock solutions were prepared in DMSO.
(§2) Adherent cell lines LN-229, HCT-116, and NCI-H460 and Capan-1 cells were seeded at a density between 500 and 1500 cells per well, in 384-well tissue culture plates (Greiner, Kremsmünster, Austria). After overnight incubation, the cells were treated with seven different concentrations of the test compounds, ranging from 100 to 0.006 µM.
(§3) Suspension cell lines HL-60, K-562, Z-138, and DND-41 were seeded at densities ranging from 2500 to 5500 cells per well in 384-well culture plates containing the test compounds at the same concentration points. The cells were incubated for 72 h with the compounds and were then analyzed using the CellTiter 96® AQueous One Solution Cell Proliferation Assay (MTS) reagent (Promega, Madison, WI, USA) according to the manufacturer’s instructions. […] The compounds were tested in two independent experiments.

[13] = tested on: Capan-1, pancreatic adenocarcinoma; test: Proliferation assay (MTS, 72 h), Capan-1; type: cell-based, human; conditions: Homo sapiens, CAPAN-1
From the text: as §1, §2, §3

[14] = tested on: HCT-116, colorectal carcinoma; test: Proliferation assay (MTS, 72 h), HCT-116; type: cell-based, human; conditions: Homo sapiens, HCT-116
From the text: as §1, §2, §3

NCI-H460, lung carcinoma = test: Proliferation assay (MTS, 72 h), NCI-H460; type: cell-based, human; conditions: Homo sapiens, NCI-H460
From the text: as §1, §2, §3

[15] = tested on: DND-41, acute lymphoblastic leukemia; test: Proliferation assay (MTS, 72 h), DND-41; type: cell-based, human; conditions: Homo sapiens, DND41
From the text: as §1, §2, §3

[16] = tested on: HL-60, acute myeloid leukemia; test: Proliferation assay (MTS, 72 h), HL-60; type: cell-based, human; conditions: Homo sapiens, HL-60
From the text: as §1, §2, §3

[17] = tested on: K-562, chronic myeloid leukemia; test: Proliferation assay (MTS, 72 h), K-562; type: cell-based, human; conditions: Homo sapiens, K562
From the text: as §1, §2, §3

[18] = tested on: Z-138, non-Hodgkin lymphoma; test: Proliferation assay (MTS, 72 h), Z-138; type: cell-based, human; conditions: Homo sapiens, Z-138
From the text: as §1, §2, §3

E. faecalis ATCC 29212 = test: Broth microdilution MIC, E. faecalis; type: cell-based; conditions: Enterococcus faecalis, ATCC29212; read-out: MIC against E. faecalis
Protocol: (§4) Selected bacterial strains were Gram-negative E. coli, K. pneumoniae, A. baumannii and P. aeruginosa and Gram-positive S. aureus, S. pneumoniae, and E. faecalis. The synthesized compounds were prepared as 10 mM DMSO solutions and tested in a final concentration range of 0.2–100 µM [39].
(§5) Broth microdilution testing was performed according to CLSI (Clinical Laboratory Standards Institute) guidelines. The MIC (minimal inhibitory concentration) value was defined as the last tested concentration of the compound at which there was no visible growth of bacteria. Inoculums for each microorganism were prepared using the direct colony suspension method, where broth solutions that achieved turbidity equivalent to 0.5 McFarland standard were additionally diluted 100× with Ca adjusted MH media (Becton Dickinson, Franklin Lakes, NJ, USA). All of the test plates were incubated for 16–24 h at 37 °C.
(§6) Methods for dilution of antimicrobial susceptibility tests for bacteria that grow aerobically followed M07, 11th edition, 2018, and Clinical and Laboratory Standards Institute (CLSI) guidelines. Performance standards for antimicrobial susceptibility testing followed the M100, 28th edition, 2018.

E. coli efflux del = test: microbe, parasite or virus in culture; type: cell-based; conditions: Table 2 prints no unit; μM for compounds; antibiotics tested at 0.125–64 µg/mL
Protocol: as §4, §5, §6

Row | Compound | EC50 [1] [µM] | EC50 [2] [µM] | EC50 [3] [µM] | EC50 [4] [µM] | EC50 [5] [µM] | EC50 [6] [µM] | EC50 [7] [µM] | EC50 [8] [µM] | EC50 [9] [µM] | EC50 (Zika virus (Mr776)) [µM] | EC50 (sindbis virus) [µM] | CC50 (in vitro [10]) [µM] | CC50 (in vitro [11]) [µM] | CC50 (in vitro [12]) [µM] | IC50 (LN-229, glioblastoma) [µM] | IC50 [13] [µM] | IC50 [14] [µM] | IC50 (NCI-H460, lung carcinoma) [µM] | IC50 [15] [µM] | IC50 [16] [µM] | also measured
1 | Cn1c(N)nc2ccccc21 [Compound 18, 2-amino-1-methylbenzimidazole] | > 100 | > 100 | > 100 | > 100 | > 100 | > 100 | > 100 | > 100 | > 100 | 43.1 | > 100 | > 100 | > 100 | > 100 |  |  |  |  |  |  | 
2 | Cn1c(N)nc2ccc(C#N)cc21 [Compound 22, 2-amino-6-cyano-1-methylbenzimidazole] | > 100 | > 100 | > 100 | > 100 | > 100 | > 100 | 78.7 | > 100 | > 100 | 46.4 | > 100 | > 100 | > 100 | > 100 |  |  |  |  |  |  | 
3 | CC(C)Cn1c(/N=C/c2ccc(N(C)C)cc2)nc2ccc(C#N)cc21 [Compound 29, (E)-2-((4-(Dimethylamino)benzylidene)amino)-1-isobutyl-1H-benzo[d]imidazole-6-carbonitrile] | > 100 | > 100 | 79.8 | 94.1 | > 100 | > 100 | > 100 | > 100 | > 100 | > 100 | > 100 | > 100 | > 100 | > 100 | > 100 | > 100 | > 100 | > 100 | > 100 | 42.8 | IC50 [17]: > 100 µM; IC50 [18]: > 100 µM; melting point: 283 to 285 °C
4 | CC(C)Cn1c(/N=C/c2ccc([N+](=O)[O-])cc2)nc2ccc(C#N)cc21 [Compound 32, (E)-1-Isobutyl-2-((4-nitrobenzylidene)amino)-1H-benzo[d]imidazole-6-carbonitrile] | 38.5 | 68.7 | > 100 | > 100 | > 100 | > 100 | > 100 | > 100 | > 100 | > 100 | > 100 | > 100 | 90.1 | > 100 | > 100 | > 100 | > 100 | > 100 | > 100 | > 100 | IC50 [17]: > 100 µM; IC50 [18]: > 100 µM; melting point: 277 to 279 °C
5 | CN(C)c1ccc(/C=N/c2nc3ccc(C#N)cc3n2C)cc1 [Compound 34, (E)-2-((4-(Dimethylamino)benzylidene)amino)-1-methyl-1H-benzo[d]imidazole-6-carbonitrile] | > 100 | > 100 | 82.8 | > 100 | > 100 | 83.5 | > 100 | > 100 | > 100 | > 100 | > 100 | > 100 | > 100 | > 100 | > 100 | > 100 | > 100 | > 100 | > 100 | > 100 | IC50 [17]: > 100 µM; IC50 [18]: > 100 µM
6 | CCN(CC)c1ccc(/C=N/c2nc3ccc(C#N)cc3n2C)c(O)c1 [Compound 36, (E)-2-((4-(Diethylamino)-2-hydroxybenzylidene)amino)-1-methyl-1H-benzo[d]imidazole-6-carbonitrile] | 88.4 | > 100 | > 100 | > 100 | > 100 | > 100 | > 100 | > 100 | > 100 | > 100 | > 100 | > 100 | > 100 | > 100 | > 100 | > 100 | > 100 | > 100 | 41.4 | > 100 | IC50 [17]: > 100 µM; IC50 [18]: > 100 µM
7 | CN(C)c1ccc(/C=N/c2nc3ccccc3n2-c2ccccc2)cc1 [Compound 38, (E)-N,N-Dimethyl-4-(((1-phenyl-1H-benzo[d]imidazol-2-yl)imino)methyl)aniline] | > 100 | 94.8 | > 100 | > 100 | > 100 | > 100 | > 100 | > 100 | > 100 | > 100 | > 100 | > 100 | > 100 | > 100 | > 100 | > 100 | > 100 | > 100 | > 100 | > 100 | MIC (E. faecalis ATCC 29212): 32 µM (≈ 10.9 µg/mL); MIC E. coli efflux del (E. coli efflux del): >64; IC50 [17]: > 100 µM; IC50 [18]: > 100 µM; melting point: 204 to 207 °C
8 | CCN(CC)c1ccc(/C=N/c2nc3ccc(C#N)cc3n2-c2ccccc2)c(O)c1 [Compound 41, (E)-2-((4-(Diethylamino)-2-hydroxybenzylidene)amino)-1-phenyl-1H-benzo[d]imidazole-6-carbonitrile] | > 100 | 89.5 | > 100 | > 100 | > 100 | > 100 | > 100 | > 100 | > 100 | > 100 | > 100 | > 100 | > 100 | 71.6 | > 100 | 69.5 | > 100 | > 100 | 76.3 | 49.6 | MIC (E. faecalis ATCC 29212): 32 µM (≈ 13.1 µg/mL); MIC E. coli efflux del (E. coli efflux del): >64; IC50 [17]: > 100 µM; IC50 [18]: 35.2 µM; melting point: 111 to 114 °C
9 | C[C@@H](O)[C@H]1C(=O)N2C(C(=O)O)=C(S[C@@H]3CN[C@H](C(=O)N(C)C)C3)[C@H](C)[C@H]12 [Meropenem, meropenem, reference compound] |  |  |  |  |  |  |  |  |  |  |  |  |  |  |  |  |  |  |  |  | MIC E. coli efflux del (E. coli efflux del): 8
